Measurements from patent US11427561B2, “IRAK4 inhibiting agents” (BIOGEN MA INC., priority 2016, dated 2022).

Columns and labels:
[1] = system: A549 cells; experiment: Cell-based assay: IL-6 ELISA quantification in A549 cells stimulated with human IL-1beta; details: 2 ng/ml human IL-1beta overnight
Method: Cell-based Assay: The cell-based assays is based on IL-6 ELISA quantification. Briefly, A549 cells are cultured in DMEM with 10% FBS medium. When cells reach 80% confluence they are trypsin treated and seeded 180 ul/well in 96-well plate at 2.5×10^4 cells/well. Then, 20 ul of compound serial dilutions (starting at 10 uM, 10 points) are added to the cell plate; incubate for 30 min at 37 C and stimulated with 2 ng/ml human IL-1beta 37 C, 5% CO2 overnight. The next day 100 ul of cell supernatant per well are analyzed on a Human IL-6 Quantikine ELISA kit from R&D Systems.
The compounds described herein were tested for in the above biochemical and cell-based assays.

[2] = target: IRAK4 (Homo sapiens (Human), UniProt Q9NWZ3); experiment: IRAK-4 biochemical assay, AlphaScreen format (phosphorylation of a biotin labeled peptide); details: 1 nM IRAK4, 1.6 μM peptide, 1 mM ATP, 3.5 h at RT
Method: Biochemical Assay: The biochemical assay is in a AlphaScreen format. The kinase reaction is based on the IRAK-4 phosphorylation of a biotin labeled peptide. The phosphopeptide is incubated with anti-phosphothreonine antibody as well as streptavidin- and protein A-coated beads. Binding of the protein-A coated beads to the antibody and the streptavidin beads to the peptide, leads to an energy transfer from one bead to the other, ultimately producing a luminescent/fluorescent signal.
Generally, the kinase reaction is carried out at 1 nM IRAK4, 1.6 μM peptide, 1 mM ATP in reaction buffer 50 mM Hepes, 60 mM NaCl, 5 mM MgCl2, 0.25 mM MnCl2, 2 mM DTT, 0.01% BSA, 0.01% Tween-20) for 3.5 h at RT.
The compounds described herein were tested for in the above biochemical assay.

[3] = system: primary human microglia; details: cited from earlier work
[4] = system: astrocytes and microglia; details: cited from earlier work
[5] = system: primary human astrocytes; details: cited from earlier work

Sequence of IRAK4 (Q9NWZ3 whole entry, species assumed): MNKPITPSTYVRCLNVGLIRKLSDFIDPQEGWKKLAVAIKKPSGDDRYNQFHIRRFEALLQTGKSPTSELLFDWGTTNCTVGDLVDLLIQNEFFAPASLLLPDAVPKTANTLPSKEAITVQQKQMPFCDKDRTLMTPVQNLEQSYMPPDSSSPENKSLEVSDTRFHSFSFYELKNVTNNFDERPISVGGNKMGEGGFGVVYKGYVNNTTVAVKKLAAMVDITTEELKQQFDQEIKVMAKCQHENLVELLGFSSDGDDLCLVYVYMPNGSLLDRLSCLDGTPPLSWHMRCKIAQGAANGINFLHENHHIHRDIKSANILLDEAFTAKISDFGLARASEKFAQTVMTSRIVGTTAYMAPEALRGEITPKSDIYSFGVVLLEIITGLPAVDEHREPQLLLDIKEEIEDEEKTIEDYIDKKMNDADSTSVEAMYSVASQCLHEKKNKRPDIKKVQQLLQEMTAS

N[C@H](c1cccc(-c2ccc3cnn(-c4cccc(CF)n4)c3c2)n1)[C@H]1C[C@@H](O)C1 [Compound 16, (1R,3s)-3-((S)-amino(6-(1-(6-(fluoromethyl)pyridin-2-yl)-1H-indazol-6-yl)pyridin-2-yl)methyl)cyclobutanol]
EC50 ([1]; Homo sapiens, A549, A549 cells): ≤ 1000 nM
IC50 [2]: ≤ 100 nM

N[C@H](c1cncc(-c2ccc3cnn(-c4cccc(CO)n4)c3c2)n1)[C@H]1C[C@@H](O)C1 [Compound 17, cis-3-((S)-amino(6-(1-(6-(hydroxymethyl)pyridin-2-yl)-1H-indazol-6-yl)pyrazin-2-yl)methyl)cyclobutanol]
EC50 ([1]; Homo sapiens, A549, A549 cells): ≤ 1000 nM
IC50 [2]: ≤ 100 nM

N[C@H](c1cccc(-c2cc(OCC(F)F)c3cnn(-c4cccc(CO)n4)c3c2)n1)[C@H]1C[C@@H](O)C1 [Compound 24, (1R,3s)-3-((S)-amino(6-(4-(2,2-difluoroethoxy)-1-(6-(hydroxymethyl)pyridin-2-yl)-1H-indazol-6-yl)pyridin-2-yl)methyl)cyclobutanol]
EC50 ([1]; Homo sapiens, A549, A549 cells): ≤ 1000 nM
IC50 [2]: ≤ 100 nM

CC(O)c1ccnc(-n2ncc3ccc(-c4cccc([C@@H](N)[C@H]5C[C@@H](O)C5)n4)cc32)n1 (stereo partly drawn) [Compound 25, (1R,3s)-3-((1S)-amino(6-(1-(4-(1-hydroxyethyl)pyrimidin-2-yl)-1H-indazol-6-yl)pyridin-2-yl)methyl)cyclobutanol]
EC50 ([1]; Homo sapiens, A549, A549 cells): 1000 to 10000 nM
IC50 [2]: ≤ 100 nM

N[C@H](c1cccc(-c2ccc3cnn(-c4cccc(CO)n4)c3c2)n1)C1CC(F)(F)C1 [Compound 26, (S)-(6-(6-(6-(amino(3,3-difluorocyclobutyl)methyl)pyridin-2-yl)-1H-indazol-1-yl)pyridin-2-yl)methanol]
EC50 ([1]; Homo sapiens, A549, A549 cells): ≤ 1000 nM
IC50 [2]: ≤ 100 nM

N[C@@H](c1cccc(-c2ccc3cnn(-c4cccc(CO)n4)c3c2)n1)C1CC(F)(F)C1 [Compound 27, (R)-(6-(6-(6-(amino(3,3-difluorocyclobutyl)methyl)pyridin-2-yl)-1H-indazol-1-yl)pyridin-2-yl)methanol]
EC50 ([1]; Homo sapiens, A549, A549 cells): ≤ 1000 nM
IC50 [2]: ≤ 100 nM

N[C@H](c1cccc(-c2ccc3cnn(-c4nccc(CO)n4)c3c2)n1)C1CC(F)(F)C1 [Compound 28, (S)-(2-(6-(6-(amino(3,3-difluorocyclobutyl)methyl)pyridin-2-yl)-1H-indazol-1-yl)pyrimidin-4-yl)methanol]
EC50 ([1]; Homo sapiens, A549, A549 cells): ≤ 1000 nM
IC50 [2]: ≤ 100 nM

N[C@H](c1cccc(-c2ccc3cnn(-c4cccc(CF)n4)c3c2)n1)C1CC(F)(F)C1 [Compound 29, (S)-(3,3-difluorocyclobutyl)(6-(1-(6-(fluoromethyl)pyridin-2-yl)-1H-indazol-6-yl)pyridin-2-yl)methanamine]
EC50 ([1]; Homo sapiens, A549, A549 cells): ≤ 1000 nM
IC50 [2]: ≤ 100 nM

N[C@H](c1cccc(-c2ccc3cnn(-c4cccc(C(F)F)n4)c3c2)n1)C1CC(F)(F)C1 [Compound 30, (S)-(3,3-difluorocyclobutyl)(6-(1-(6-(difluoromethyl)pyridin-2-yl)-1H-indazol-6-yl)pyridin-2-yl) methanamine]
EC50 ([1]; Homo sapiens, A549, A549 cells): ≤ 1000 nM
IC50 [2]: ≤ 100 nM

CCOc1cc(-c2cccc([C@H](N)C3CC(F)(F)C3)n2)cc2c1cnn2-c1cccc(CO)n1 [Compound 33, (R)-(6-(6-(6-(amino(3,3-difluorocyclobutyl)methyl)pyridin-2-yl)-4-ethoxy-1H-indazol-1-yl)pyridin-2-yl)methanol]
EC50 ([1]; Homo sapiens, A549, A549 cells): ≤ 1000 nM
IC50 [2]: ≤ 100 nM

CCOc1cc(-c2cccc([C@@H](N)C3CC(F)(F)C3)n2)cc2c1cnn2-c1cccc(CO)n1 [Compound 34, (S)-(6-(6-(6-(amino(3,3-difluorocyclobutyl)methyl)pyridin-2-yl)-4-ethoxy-1H-indazol-1-yl)pyridin-2-yl)methanol]
EC50 ([1]; Homo sapiens, A549, A549 cells): ≤ 1000 nM
IC50 [2]: ≤ 100 nM

N[C@H](c1cccc(-c2ccc3cnn(-c4cccc(C(F)F)n4)c3c2)n1)C1CC(O)C1 (stereo partly drawn) [Compound 35a, 3-((S)-amino(6-(1-(6-(difluoromethyl)pyridin-2-yl)-1H-indazol-6-yl)pyridin-2-yl)methyl)cyclobutan-1-ol]
EC50 ([1]; Homo sapiens, A549, A549 cells): ≤ 1000 nM
IC50 [2]: ≤ 100 nM

CCc1cccc(-n2ncc3ccc(-c4cccc([C@@H](N)C5CC(O)C5)n4)cc32)n1 (stereo partly drawn) [Compound 35b, 3-((S)-amino(6-(1-(6-ethylpyridin-2-yl)-1H-indazol-6-yl)pyridin-2-yl)methyl)cyclobutan-1-ol]
EC50 ([1]; Homo sapiens, A549, A549 cells): 1000 to 10000 nM
IC50 [2]: ≤ 100 nM

COc1cccc(-n2ncc3ccc(-c4cccc([C@@H](N)C5CC(O)C5)n4)cc32)n1 (stereo partly drawn) [Compound 35e, (S)-3-(amino(6-(1-(6-methoxypyridin-2-yl)-1H-indazol-6-yl)pyridin-2-yl)methyl)cyclobutan-1-ol]
EC50 ([1]; Homo sapiens, A549, A549 cells): 1000 to 10000 nM
IC50 [2]: 100 to 1000 nM

CC1(O)CC([C@H](N)c2cccc(-c3ccc4cnn(-c5cccc(CF)n5)c4c3)n2)C1 (stereo partly drawn) [Compound 35f, 3-((S)-amino(6-(1-(6-(fluoromethyl)pyridin-2-yl)-1H-indazol-6-yl)pyridin-2-yl)methyl)-1-methylcyclobutan-1-ol]
EC50 ([1]; Homo sapiens, A549, A549 cells): 1000 to 10000 nM
IC50 [2]: ≤ 100 nM

CC1(O)CC([C@H](N)c2cccc(-c3ccc4cnn(-c5cccc(C(F)F)n5)c4c3)n2)C1 (stereo partly drawn) [Compound 35g, 3-((S)-amino(6-(1-(6-(difluoromethyl)pyridin-2-yl)-1H-indazol-6-yl)pyridin-2-yl)methyl)-1-methylcyclobutan-1-ol]
EC50 ([1]; Homo sapiens, A549, A549 cells): ≤ 1000 nM
IC50 [2]: ≤ 100 nM

COC1CC([C@H](N)c2cccc(-c3ccc4cnn(-c5cccc(C(F)F)n5)c4c3)n2)C1 (stereo partly drawn) [Compound 35h, (S)-(6-(1-(6-(difluoromethyl)pyridin-2-yl)-1H-indazol-6-yl)pyridin-2-yl)(3-methoxycyclobutyl)methanamine]
EC50 ([1]; Homo sapiens, A549, A549 cells): ≤ 1000 nM
IC50 [2]: ≤ 100 nM

CC1(O)CC([C@H](N)c2cccc(-c3ccc4cnn(-c5cccc(CF)n5)c4c3)n2)C1 (stereo partly drawn) [Compound 35i, 3-((S)-amino(6-(1-(6-(fluoromethyl)pyridin-2-yl)-1H-indazol-6-yl)pyridin-2-yl)methyl)-1-methylcyclobutan-1-ol]
EC50 ([1]; A549 cells): 1000 to 10000 nM
IC50 [2]: 100 to 1000 nM

O=C(Nc1nc2ccccc2n1CCN1CCOCC1)c1cccc([N+](=O)[O-])c1 [IRAK-1/4 inhibitor I]
lipopolysaccharide-induced secretion of monocyte chemotactic protein-1 (MCP-1) [3]: reduced
in vitro uptake of amyloid β (Aβ) [4]: not affected
interleukin-1β-induced secretion of MCP-1 [5]: reduced
interleukin-1β-induced secretion of interleukin 6 [5]: reduced
